Data as given in US20250101062A1, “ANTIMICROBIAL PEPTIDES” (Board of Regents of the University of Nebraska, priority 2023, published 2025).
In brackets after ≈: the same amount, converted by molar mass. Read-outs that look alike come from different tables or passages of the source. Each block holds one compound with its values, some of them ahead of it. Where a SMILES comes first, the peptide text is derived from it. Where no end group is shown, it is not given here.

Legend:
S. aureus USA300 LAC = test: microbe, parasite or virus in culture; type: cell-based, Staphylococcus aureus; details: for change of MIC / activity: 10% human serum
Experimental: (§1) The following resistant bacterial clinical strains were used in this study: S. aureus USA300 LAC, S. epidermidis 1457, E. coli E423-17, P. aeruginosa E411-17, K. pneumoniae E406-17, and A. baumannii B28-16. While the S. aureus USA300 strain is methicillin-resistant, most of the Gram-negative bacteria contain extended-spectrum beta-lactamase and are resistant to beta-lactam antibiotics. Peptide activity against bacteria was tested using an established lab protocol (Mishra, et al. (2017) Acta Biomater., 49:316-328). In brief, a peptide concentration gradient with twofold dilution was made in the 96-well polystyrene microplate at 10 μL per well. Bacteria were grown to the exponential phase (i.e., optical density at 600 nm≈0.5), diluted to ˜10^5 CFU/mL in different percentages of MHB, TSB, or LB, and partitioned into the 96-well microplate at 90 μL per well. […] They were diluted with autoclaved distilled water to obtain different percentages. The microplates were incubated at 37° C. overnight and read on a ChroMate™ 4300 microplate reader at 600 nm (GMI, Ramsey, MN). The peptide concentration in the wells without bacterial growth is the MIC. As is the convention, MIC values were represented as ranges.
(§2) For pH effects on peptide activity, the pH of the medium was adjusted to a targeted pH for the autoclave and then remeasured at room temperature. For salt and serum effects on peptide activity, stock NaCl solution or human serum was added to the media.
(§3) Peptide activity against bacteria were tested using the CLSI standard procedure with minor modifications (Clinical and Laboratory Standards Institute (2018) Performance standards for antimicrobial susceptibility testing, 9th ed.; Mishra, et al. (2019) Proc. Natl. Acad. Sci., 116(27):13517-13522). In brief, a peptide concentration gradient with twofold dilution was made in the 96-well polystyrene microplate at 10 μL per well. Bacteria were grown to the exponential phase (i.e., optical density at 600 nm≈0.5), diluted to ˜10^5 CFU/mL in MHB, and partitioned into the 96-well microplate at 90 μL per well. The microplates were incubated at 37° C. overnight and read on a ChroMate® 4300 Microplate Reader at 600 nm (GMI, Ramsey, MN). The peptide concentration in the wells without bacterial growth is the minimal inhibitory concentration (MIC). As the convention, MIC values were represented as ranges.
(§4) For pH effects on peptide activity, the pH of the medium was adjusted to a targeted pH for autoclave and then remeasured at room temperature. For salt and serum effects on peptide activity, stock NaCl solution or human serum were added to the media.

[1] = Effect of MHB dilution on antibacterial activity of a panel of antibiotics; type: cell-based; details: MHB from 100 to 12.5%
Experimental: FIGS. 2A-2D show biofilm disruption activity of human LL-37 (FIGS. 2A and 2B) and 17BIPHE2 (FIGS. 2C and 2D) against the 24 hour preformed biofilms of S. aureus USA300 LAC in different MHB media: 12.5% MHB (FIGS. 2A and 2C) and 100% MHB (FIGS. 2B and 2D). FIGS. 2E-2H show the treatment outcome of LL-37 (FIGS. 2E and 2F) and 17BIPHE2 (FIGS. 2G and 2H) against the 24-hour preformed biofilms of E. coli E423-17 in different MHB media: 12.5% MHB (FIGS. 2E and 2G) and 100% MHB (FIGS. 2F and 2H). […] Growth curves of S. aureus USA 300 LAC (FIGS. 2J-2K) and P. aeruginosa 152 (FIGS. 2L-2M) in 12.5%, 25%, 50% and 100% MHB or TSB medium (curves from bottom to top).
The effects of MHB dilution on the antimicrobial activity of a panel of antibiotics was also compared (FIG. 2I).

E. coli E423-17 = type: cell-based, Escherichia coli
Experimental: as §1, §2, §3, §4

S. epidermidis 1457 = test: microbe, parasite or virus in culture; type: cell-based, Staphylococcus epidermidis; details: read-out: Antimicrobial activity (MIC) S. epidermidis 1457
Experimental: as §1, §3

A. baumannii B28-16 = type: cell-based, Acinetobacter baumannii; details: B28-16
Experimental: as §1, §3

P. aeruginosa E411-17 = test: microbe, parasite or virus in culture; type: cell-based, Pseudomonas aeruginosa; details: for MIC: read-out: Antimicrobial activity (MIC)
Experimental: as §1, §2, §3, §4

E. coli = details: data from the antimicrobial peptide database; cited from earlier work
K. pneumoniae E406-17 = type: cell-based, Klebsiella pneumoniae
Experimental: as §1, §3

[2] = Staphylococcus aureus, MRSA / USA300, MRSA in MHB, 20% serum, read-out: Antimicrobial activity (MIC)
[3] = Staphylococcus aureus, MRSA / USA300, pH 6.3, MRSA in MHB, pH 6.3, read-out: Antimicrobial activity (MIC)
[4] = Staphylococcus aureus, MRSA / USA300, pH 7.2, MRSA in MHB, pH 7.2, read-out: Antimicrobial activity (MIC)
[5] = USA300, read-out: Antimicrobial activity (MIC)

Compound: NCC[C@H](O)C(=O)N[C@@H]1C[C@H](N)[C@@H](O[C@H]2O[C@H](CN)[C@@H](O)[C@H](O)[C@H]2O)[C@H](O)[C@H]1O[C@H]1O[C@H](CO)[C@@H](O)[C@H](N)[C@H]1O [Amikacin]
change of MIC / activity (S. aureus USA300 LAC; MRSA in MHB): fourfold
MIC (S. aureus USA300 LAC; [2]): 32 to 64 µM (≈ 18.7 to 37.5 µg/mL)
MIC (S. aureus USA300 LAC; [3]): 32 µM (≈ 18.7 µg/mL)
MIC (S. aureus USA300 LAC; [4]): 8 µM (≈ 4.68 µg/mL)
change in MIC with dilution of MHB [1]: small changes in MIC values

MIC (S. aureus USA300 LAC; USA300, pH 6.21, read-out: Antimicrobial activity (MIC)): 8 µM (≈ 9.55 µg/mL)
MIC (S. aureus USA300 LAC; USA300, pH 7.22, read-out: Antimicrobial activity (MIC)): 4 µM (≈ 4.77 µg/mL)
MIC (S. aureus USA300 LAC; USA300, pH 8.13, read-out: Antimicrobial activity (MIC)): 2 µM (≈ 2.39 µg/mL)
MIC (S. aureus USA300 LAC; [5]): 4 µM (≈ 4.77 µg/mL)
MIC (S. aureus USA300 LAC; USA300, read-out: Antimicrobial activity (MIC) S. aureus USA300): 4 µM (≈ 4.77 µg/mL)
Antimicrobial activity (MIC) E. coli E423-17 (E. coli E423-17; E423-17): 8 µM
MIC (S. epidermidis 1457): 4 µM (≈ 4.77 µg/mL)
Antimicrobial activity (MIC) A. baumannii B28-16 (A. baumannii B28-16): 4 µM
Antimicrobial activity (MIC) P. aeruginosa E411-17 (P. aeruginosa E411-17; E411-17): 8 µM
MIC (P. aeruginosa E411-17; E411-17, pH 6.21): 16 µM (≈ 19.1 µg/mL)
Antimicrobial activity (MIC) (P. aeruginosa E411-17; E411-17, pH 7.22): 4 to 8 µM
MIC (P. aeruginosa E411-17; E411-17, pH 8.13): 4 µM (≈ 4.77 µg/mL)
MIC (P. aeruginosa E411-17; E411-17): 16 µM (≈ 19.1 µg/mL)
Compound: CCCCCCCCCC(=O)N[C@H](CCCCN)C(=O)N[C@H](CCCNC(=N)N)C(=O)N[C@@H](C(=O)N[C@@H](C(=O)N[C@H](CCC(N)=O)C(=O)N[C@H](CCCNC(=N)N)C(=O)N[C@@H](C(=O)N[C@H](CCCCN)C(N)=O)[C@H](C)CC)C(C)C)[C@H](C)CC [C10-KR8, reference compound] (HELM PEPTIDE1{[CCCCCCCCCC(=O)[*:2]].[dK].[dR].[dI].[dV].[dQ].[dR].[dI].[dK].[am]}$$$$V2.0; N-terminus and C-terminus assumed)

Compound: CC(=O)NC[C@H]1CN(c2ccc(N3CCOCC3)c(F)c2)C(=O)O1 [Linezolid]
MIC (S. aureus USA300 LAC; [2]): 8 to 16 µM (≈ 2.7 to 5.4 µg/mL)
MIC (S. aureus USA300 LAC; Staphylococcus aureus, MRSA / USA300, MRSA in MHB, NaCl (150 mM), read-out: Antimicrobial activity (MIC)): 8 µM (≈ 2.7 µg/mL)
change in MIC with dilution of MHB [1]: essentially no changes

Compound: C/C(=C\C(=O)OCCCCCCCCC(=O)O)C[C@@H]1OC[C@H](C[C@@H]2O[C@H]2[C@@H](C)[C@H](C)O)[C@@H](O)[C@H]1O [Muporicin]
change of MIC / activity (S. aureus USA300 LAC; MRSA in MHB): fourfold
Antimicrobial activity (MIC) (S. aureus USA300 LAC; MRSA in MHB, 10% serum): 4 µM
Antimicrobial activity (MIC) (S. aureus USA300 LAC; MRSA in MHB, 20% serum): 4 µM
Antimicrobial activity (MIC) (S. aureus USA300 LAC; MRSA in MHB, NaCl (150 mM)): 1 µM
Antimicrobial activity (MIC) (S. aureus USA300 LAC; MRSA in MHB, pH 6.3): 0.5 µM
Antimicrobial activity (MIC) (S. aureus USA300 LAC; MRSA in MHB, pH 7.2): 1 µM
change in MIC with dilution of MHB [1]: essentially no changes

Compound: NC[C@H]1O[C@H](O[C@H]2[C@H](O)[C@@H](O[C@H]3O[C@H](CO)[C@@H](O)[C@H](N)[C@H]3O)[C@H](N)C[C@@H]2N)[C@H](N)C[C@@H]1O [Tobramycin]
MIC (S. aureus USA300 LAC; Staphylococcus aureus, MRSA / USA300, MRSA in MHB, 10% serum, read-out: Antimicrobial activity (MIC)): 2 to 4 µM (≈ 0.935 to 1.87 µg/mL)
MIC (S. aureus USA300 LAC; [3]): 4 µM (≈ 1.87 µg/mL)
MIC (S. aureus USA300 LAC; [4]): 2 µM (≈ 0.935 µg/mL)
change in MIC with dilution of MHB [1]: essentially no changes

Antimicrobial activity (MIC) (S. aureus USA300 LAC; MHB 12.5%): active
Antimicrobial activity (MIC) (S. aureus USA300 LAC; MHB 100%): active
Antimicrobial activity (MIC) (E. coli E423-17; MHB 12.5%): active
Antimicrobial activity (MIC) (E. coli E423-17; MHB 100%): active
Compound: FKRIVQRIKDFLRNLV [FK-16, reference compound]

Compound: GGLKKLGKKLEGAGKRVFKASEKALPVVVGIKAIGK (listed as Aedes aegypti) [Aedesin]
MIC against E. coli (E. coli): 2 to 4 µg/mL

Compound: GIWSSIKNLASKAWNSDIGQSLRNKAAGAINKFVADKIGVTPSQAAS (vaejovis mexicanus) [Vejovine]
MIC against E. coli (E. coli): 4.4 to 20 µM

Compound: GVFDIIKGAGKQLIARAMGKIAEKVGLNKDGN (listed as Leptodactylus pustulatus) [Ocellatin-PT8]
MIC against E. coli (E. coli): 60 µM

Compound: GWLKKIGKKIERVGQHTRDATIQGLGIAQQAANVAATAR (Drosophila melanogaster) [Sarcotoxin IA]
MIC against E. coli (E. coli): 0.2 to 6.3 µg/mL

MIC (S. aureus USA300 LAC; [5]): >64 µM
Antimicrobial activity (MIC) (E. coli E423-17; E423-17): >64 µM
Compound: KEKIGKEFKR-NH2 (C-terminus assumed) [KE-10]

Antimicrobial activity (MIC) (S. aureus USA300 LAC; MHB 12.5%): > 64 µM
Activity (MIC) S. aureus (S. aureus USA300 LAC; USA300): >32 µM
MIC (S. aureus USA300 LAC; [5]): >64 µM
Activity (MIC) E.coli (E. coli E423-17; E423-17): >32 µM
Antimicrobial activity (MIC) (E. coli E423-17; E423-17): >64 µM
Antimicrobial activity (MIC) (E. coli E423-17; MHB 12.5%): 8 µM
Activity (MIC) K. pneumoniae (K. pneumoniae E406-17): >32 µM
Activity (MIC) A. baumannii (A. baumannii B28-16): >32 µM
Activity (MIC) P. aeruginosa (P. aeruginosa E411-17; E411-17): >32 µM
Compound: KRIVQRIK-NH2 [W538]
